The values that follow come from ChEMBL document CHEMBL5370688, “Development of HC-258, a Covalent Acrylamide TEAD Inhibitor That Reduces Gene Expression and Cell Migration” (ACS Med Chem Lett, 2023).

Active and inactive are the calls of the source. No cut-off for these calls is given here.

The subject of experiment [1] is YAP1-TEAD1 (Homo sapiens). Briefly: Inhibition of C-terminal NanoLuc-tagged TEAD1 (unknown origin)/C-terminal Halo-Tagged YAP1 (unknown origin) protein-protein interaction transfected in HEK293T cells at 10 uM using Nano-Glo as substrate pre incubated for 4 hrs followed by substrate addition and measured within 10 mins by NanoBRET …. The following applies: time 250.0 min. A general note: Bioluminescence resonance energy transfer reports proximity on the nanometre scale.

The subject of experiment [2] is MDA-MB-231. Briefly: Inhibition of TEAD in human MDA-MB-231 cells assessed as reduction in NF2 gene expression level at 10 uM measured after 48 hrs by SYBR green staining based RT-qPCR analysis. The format is cell-based.
The test system of experiment [3] is MDA-MB-231. Briefly: Inhibition of TEAD in human MDA-MB-231 cells assessed as reduction in AXL gene expression level at 10 uM measured after 48 hrs by SYBR green staining based RT-qPCR analysis. It is filed as cell-based. A general note: In qPCR the cycle at which signal appears reflects the starting amount.
The test system of experiment [4] is MDA-MB-231. Briefly: Inhibition of TEAD in human MDA-MB-231 cells assessed as reduction in CTGF gene expression level at 10 uM measured after 48 hrs by SYBR green staining based RT-qPCR analysis. It is filed as cell-based.
Experiment [5] deals with Transcriptional enhancer factor TEF-3 (Homo sapiens) (UniProt Q15561). Briefly: Displacement of bodipy-PA from TEAD4 (unknown origin) measured after 30 mins by FP assay.
The target is the same in experiment [6]. Briefly: Binding affinity to TEAD4 (unknown origin) assessed as covalent adduct formation at 0.3 mM incubated for 2 hrs by Agilent LC/MSD Time-of-Flight Mass Spectrometric analysis.
Experiment [7] deals with MDA-MB-231. Briefly: Inhibition of TEAD in human MDA-MB-231 cells assessed as reduction in Cyr61 gene expression level at 10 uM measured after 48 hrs by SYBR green staining based RT-qPCR analysis. The format is cell-based.
Experiment [8] has as its system MDA-MB-231. Briefly: Cytotoxicity against human MDA-MB-231 cells at 10 uM. The format is functional, cell-based.
The test system of experiment [9] is MDA-MB-231. Briefly: Inhibition of cell migration in human MDA-MB-231 cells at 10 uM incubated for 48 hrs by xCELLigence RTCA system analysis. It is filed as functional, cell-based.
In experiment [10] the target is Transcriptional enhancer factor TEF-3 (Homo sapiens) (UniProt Q15561). Briefly: Binding affinity to TEAD4 (unknown origin) assessed as partial covalent adduct formation at 0.3 mM incubated for 2 hrs by Agilent LC/MSD Time-of-Flight Mass Spectrometric analysis.
For experiment [11] the target is unchanged. Briefly: Displacement of bodipy-PA from TEAD4 (unknown origin) measured after 30 mins by FP assay relative to control.
For experiment [12] the target is unchanged. Briefly: Binding affinity to TEAD4 (unknown origin) assessed as change in aggregation temperature at 25 uM by DSLS thermal shift assay.

Transcriptional enhancer factor TEF-3 (Homo sapiens), sequence (Q15561 whole entry): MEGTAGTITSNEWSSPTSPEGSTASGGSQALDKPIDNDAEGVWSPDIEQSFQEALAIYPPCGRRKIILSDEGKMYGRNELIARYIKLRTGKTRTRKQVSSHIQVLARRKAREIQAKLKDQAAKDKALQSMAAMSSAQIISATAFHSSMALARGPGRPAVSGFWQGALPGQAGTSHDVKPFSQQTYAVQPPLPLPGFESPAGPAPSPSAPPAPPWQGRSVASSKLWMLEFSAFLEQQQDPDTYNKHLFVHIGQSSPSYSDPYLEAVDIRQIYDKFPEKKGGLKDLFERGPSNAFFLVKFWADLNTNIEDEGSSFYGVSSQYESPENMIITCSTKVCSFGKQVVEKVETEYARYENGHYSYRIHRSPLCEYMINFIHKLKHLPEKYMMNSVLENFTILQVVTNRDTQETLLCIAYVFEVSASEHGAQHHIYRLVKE

By inhibition is commonly meant the drop in the measured response relative to a control, in per cent. Take `C=CC(=O)Nc1cccc(Nc2cccc(OCCCCC)c2)c1`: the inhibition entry in experiment [1] is “inactive”. For the same compound, the inhibition entry in the experiment on MDA-MB-231 [2], with MDA-MB-231 [3], in the experiment with MDA-MB-231 [4], with MDA-MB-231 [7] and in the experiment with MDA-MB-231 [9] was “Active” in each case. Besides, in experiment [5], the K was found to be 3.6 µM. Further, in experiment [6], the outcome was Active. Moreover, the result in the experiment with MDA-MB-231 [8] was inactive.
As for `CCCCCCc1cccc(Nc2ccccc2NC(=O)C=C(C)C)c1`, in experiment [6], the result was inactive.
Take `O=C(O)c1ccccc1Nc1cccc(C(F)(F)F)c1`: the inhibition entry in the experiment on MDA-MB-231 [9] was “inactive”.
In the case of `C=CC(=O)Nc1cccc(Nc2cccc(CCCCCC)c2)c1`, the inhibition result in the experiment with MDA-MB-231 [2], in the experiment with MDA-MB-231 [3], in the experiment with MDA-MB-231 [4] and in the experiment with MDA-MB-231 [7] was “Active” in each case. Further, the K in [5] came to 1.3 µM. The result (in experiment [6]; in the experiment with MDA-MB-231 [8]) was Active.
For `CCCCCCc1cccc(Nc2cccc(NC(=O)C3CC3)c2)c1`, in experiment [6], the result was inactive.
For `C=CC(=O)Nc1ccccc1Nc1cccc(OCCCCC)c1`, the inhibition result in the experiment with MDA-MB-231 [2], with MDA-MB-231 [3], with MDA-MB-231 [4], in the experiment on MDA-MB-231 [7] and in the experiment with MDA-MB-231 [9] was “Active” each time. For the same compound, the K in experiment [5] was more than 20 µM. The outcome in [10] was Active. In addition, the result in the experiment on MDA-MB-231 [8] was inactive.
Take `CCCCCOc1cccc(Nc2cccc(NC(=O)CCl)c2)c1`: the K in experiment [5] was 3.1 µM. For the same compound, in [6], the outcome was Active. Besides, in the experiment with MDA-MB-231 [8], the outcome was inactive.
As to `CCCCCCc1cccc(Nc2cccc(NC(=O)CCl)c2)c1`, the inhibition result in the experiment with MDA-MB-231 [2] and in the experiment on MDA-MB-231 [3] was “inactive” in each case. Moreover, the inhibition result in the experiment with MDA-MB-231 [4] and in the experiment on MDA-MB-231 [7] was “Active” throughout. Further, in experiment [5], the K worked out at 1 µM. For the same compound, in experiment [6], the result was Active. For the same compound, the outcome in the experiment on MDA-MB-231 [8] was inactive.
With `CCCCCCc1cccc(Nc2ccccc2NC(=O)CCl)c1`, the K in experiment [5] was 2.3 µM. Besides, the result in experiment [6] was Active. Further, the inhibition in [11] was 80%.
For the compound `CCCCCCc1cccc(Nc2cccc(NC(=O)C=C(C)C)c2)c1`, the result in experiment [6] was inactive.
On to `C=CC(=O)Nc1ccccc1Nc1cccc(CCCCCC)c1`, for which the inhibition result with MDA-MB-231 [2], with MDA-MB-231 [3], in the experiment on MDA-MB-231 [4] and in the experiment on MDA-MB-231 [7] was “Active” throughout. Further, in experiment [5], the K is 2.7 µM. Moreover, the outcome (in [10]; in the experiment with MDA-MB-231 [8]) was Active.
`CCCCCOc1cccc(Nc2cccc(NC(C)=O)c2)c1`: the inhibition result (in experiment [1]; with MDA-MB-231 [2]; with MDA-MB-231 [3]; in the experiment on MDA-MB-231 [4]; in the experiment with MDA-MB-231 [7]; with MDA-MB-231 [9]) was “inactive” each time. Moreover, the deltaT in [12] is 2.5 °C. Moreover, the K in experiment [5] was more than 25 µM. Also, the result (in experiment [6]; with MDA-MB-231 [8]) was inactive.
